# Where two headings read alike, the source gives them in different places.
# B1: Segment C: human GAD65 amino acid residues 398-585, in vitro translated, ^35S labeled (protein)
# chain: MMGVPLQCSALLVREEGLMQNCNQMHASYLFQQDKHYDLSYDTGDKALQCGRHVDVFKLWLMWRAKGTTGFEAHVDKCLELAEYLYNIIKNREGYEMVFDGKPQHTNVCFWYIPPSLRTLEDNEERMSRLSKVAPVIKARMMEYGTTMVSYQPLGDKVNFFRMVISNPAATHQDIDFLIEEIERLGQDL
# B2: Segment A: human GAD65 amino acid residues 1-224, in vitro translated, ^35S labeled (protein)
# chain: MASPGSGFWSFGSEDGSGDSENPGTARAWCQVAQKFTGGIGNKLCALLYGDAEKPAESGGSQPPRAAARKAACACDQKPCSCSKVDVNYAFLHATDLLPACDGERPTLAFLQDVMNILLQYVVKSFDRSTKVIDFHYPNELLQEYNWELADQPQNLEEILMHCQTTLKYAIKTGHPRYFNQLSTGLDMVGLAADWLTSTANTNMFTYEIAPVFVLLEYVTLKKM
# Tests used:
# [1] = system: islet infiltrating T lymphocytes (IITLs); test: ^3H-thymidine incorporation, islet infiltrating T lymphocytes; assay type: cell-based
# splenic lymphocytes = test: ^3H-thymidine incorporation, splenic lymphocytes; assay type: cell-based
# spleen cells of NOD mice = test: Proliferative responses of NOD spleen cells to GAD peptides; assay type: cell-based, mouse; conditions: peptide 7 μM, 5-day culture
# Description: The fine specificity of the anti-GAD T-cell response was mapped using a set of 38 peptides (numbered successively from the N-terminus) that were 20-23 amino acids (aa) long and span the entire GAD65 (Bu, et al., Proc. Natl. Acad. Sci., 89:2115-2119, 1992) sequence with 5aa overlaps (FIG. 10).
# Peptides were present in cultures at 7 μM and the label was added during the last 16 hours of a 5-day culture. The peptides were synthesized using standard Fmoc chemistry and purified by reverse phase HPLC (Advanced Chemtech). The sequence of stimulatory peptides are shown below in Table 9.
# [2] = system: IDDM associated autoantibodies in sera; test: ELISA of sera on plate-bound human GAD65 peptides; assay type: binding; conditions: for number of IDDM (at risk, pre-IDDM, at onset) patients positive (X) for the peptide (unlabelled sum line): IDDM sera of Table 11
# Method in brief: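 Blinded, coded sera (1/300) bound 1 h at 37 °C to wells coated overnight at 4 °C with peptides (20 ug/ml, pH 9.6), BSA-blocked. Detection with HRP-goat anti-human IgG (1/600), read at 410 nm; positive when sample/negative-control OD410 ≥3.0.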
# [3] = system: IDDM autoantibodies in sera of human patients; test: Autoantibody reactivity with ^35S labeled GAD65 segments (immunoprecipitation, SDS-PAGE); assay type: binding; conditions: IDDM patient sera of Table 10
# From the text: Portions of human GAD65 cDNA were amplified by the polymerase chain reaction (PCR; Saiki, et al., Science, 239:487, 1988) to produce DNA segments encoding three polypeptide segments: amino acid residues 1-224 (segment A); 224-398 (segment B); and 398-585 (segment C). Each construct also contained a T7 promoter, a consensus sequence for the initiation of translation and an initiating methionine codon (Korak, M., J. Cell Biol., 108:229, 1989). Each PCR product was then trascribed in vitro with T7 RNA polymerase and translated in vitro in a rabbit reticulocyte cell-free system in the presence of ^35S-methionine, using conditions recommended by the supplier (Amersham Corp., Arlington Heights, Ill.). Each test serum (30 μl) was incubated with the resulting ^35S labeled-polypeptides. The bound peptides were isolated with PAS and analyzed by SDS-PAGE in 12% polyaacrylamide and autoradiography.
molecule,measurement,setting,value
ARFKMFPEVKEKGMAA [GAD65 (SEQ ID NO. 5)],^3H-THYMIDINE INCORPORATION (cpm) BY LYMPHOID CELL POPULATION IITLs,"[1]; 3 × 10^4 cells/well, 5 days culture with irradiated spleen cells","9,500 cpm"
same,IITL proliferative response relative to culture media or polio polypeptide,[1]; IITL population,9 fold
same,^3H-THYMIDINE INCORPORATION (cpm) BY LYMPHOID CELL POPULATION SPLEEN,"splenic lymphocytes; 1 × 10^5 cells/well, 5 days culture","23,300 cpm"
IPPSLRTLEDNEERMSRLSK [Peptide 34],age of NOD mice at first regularly detectable proliferative response,spleen cells of NOD mice,4 weeks
same,immunoreactivity of serum with GAD65 peptide,"[2]; IDDM At Onset serum 048, 1/300 dilution",X (X = positive for immunoreactivity as defined by 00/background^3.0)
same,immunoreactivity of serum with GAD65 peptide,"[2]; IDDM At Onset serum 291, 1/300 dilution",b (b = borderline response (00/background ?2.5-2.9).)
same,"number of IDDM (at risk, pre-IDDM, at onset) patients positive (X) for the peptide (unlabelled sum line)",[2],1
"MKSMCPQAQLKVKYL [Poliovirus (SEQ ID NO. 4), reference compound]",^3H-THYMIDINE INCORPORATION (cpm) BY LYMPHOID CELL POPULATION IITLs,[1],900 cpm
same,^3H-THYMIDINE INCORPORATION (cpm) BY LYMPHOID CELL […],splenic lymphocytes,"22,500 cpm"
NMYAMMIARFKMFPEVKEKG [Peptide 17],age of NOD mice at first regularly detectable proliferative response,spleen cells of NOD mice,5 weeks
SRLSKVAPVIKARMMEYGTT [Peptide 35],age of NOD mice at first regularly detectable proliferative response,spleen cells of NOD mice,4 weeks
same,"number of IDDM (at risk, pre-IDDM, at onset) patients positive (X) for the peptide (unlabelled sum line)",[2],1
same,immunoreactivity of serum with GAD65 peptide,"[2]; Pre-IDDM serum 723, 1/300 dilution",X (X = positive for immunoreactivity as defined by 00/background^3.0)
"Segment B: human GAD65 amino acid residues 224-398, in vitro translated, ^35S labeled",patients with antibodies reactive with the segment,[3],41%
B1,patients with antibodies reactive with the segment,[3],27%
B2,patients with antibodies reactive with the segment,[3],none
